Experimental data: patent US10189841B2, “Purinones as ubiquitin-specific protease 1 inhibitors” (Forma Therapeutics, Inc., priority 2015, dated 2019)

Biological target: USP1 (construct USP1 (I-785, GG670, 671AA)/UAF1 (I-677)-Flag) (Homo sapiens (Human), UniProt O94782, G670A/G671A)
Assay: Ubiquitin-Rhodamine 110 assay for USP1 activity
Format: biochemical
Details: USP1/UAF1 25 pM, Ub-Rh110 25 nM, 30 min preincubation
How it was run: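 Ub-Rh110 (25 nM, ≪Km) cleavage read at ex 485/em 535 in Tris pH 8.0, CaCl2, GSH, Prionex, Triton X-100. The screen used 10 µM compound, 100 pM USP1/UAF1 and 45 min at RT.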

Sequence of USP1 (construct USP1 (I-785, GG670, 671AA)/UAF1 (I-677)-Flag) (O94782 whole entry G670A/G671A): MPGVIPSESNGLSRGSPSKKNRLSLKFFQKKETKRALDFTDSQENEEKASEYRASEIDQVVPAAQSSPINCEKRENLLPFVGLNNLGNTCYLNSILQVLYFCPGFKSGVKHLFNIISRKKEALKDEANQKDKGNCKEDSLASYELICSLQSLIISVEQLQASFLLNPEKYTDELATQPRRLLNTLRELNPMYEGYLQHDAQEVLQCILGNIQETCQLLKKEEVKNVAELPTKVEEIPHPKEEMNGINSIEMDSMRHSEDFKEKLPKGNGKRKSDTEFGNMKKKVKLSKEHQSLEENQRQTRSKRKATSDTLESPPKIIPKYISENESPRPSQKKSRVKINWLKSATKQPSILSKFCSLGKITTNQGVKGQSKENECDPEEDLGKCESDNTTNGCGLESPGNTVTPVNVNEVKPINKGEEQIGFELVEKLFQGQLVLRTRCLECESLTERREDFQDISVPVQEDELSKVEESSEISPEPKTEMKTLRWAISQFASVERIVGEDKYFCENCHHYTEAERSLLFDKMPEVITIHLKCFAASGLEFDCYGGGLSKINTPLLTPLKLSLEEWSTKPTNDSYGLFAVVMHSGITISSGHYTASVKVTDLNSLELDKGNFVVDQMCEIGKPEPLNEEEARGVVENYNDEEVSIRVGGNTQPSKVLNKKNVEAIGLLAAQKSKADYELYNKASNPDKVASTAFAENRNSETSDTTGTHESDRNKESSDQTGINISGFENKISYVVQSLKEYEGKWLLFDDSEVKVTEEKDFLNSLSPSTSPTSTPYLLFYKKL
Sequence of USP1 (construct USP1 (I-785, GG670, 671AA)/UAF1 (I-677)-Flag) (Q8TAF3 whole entry partner): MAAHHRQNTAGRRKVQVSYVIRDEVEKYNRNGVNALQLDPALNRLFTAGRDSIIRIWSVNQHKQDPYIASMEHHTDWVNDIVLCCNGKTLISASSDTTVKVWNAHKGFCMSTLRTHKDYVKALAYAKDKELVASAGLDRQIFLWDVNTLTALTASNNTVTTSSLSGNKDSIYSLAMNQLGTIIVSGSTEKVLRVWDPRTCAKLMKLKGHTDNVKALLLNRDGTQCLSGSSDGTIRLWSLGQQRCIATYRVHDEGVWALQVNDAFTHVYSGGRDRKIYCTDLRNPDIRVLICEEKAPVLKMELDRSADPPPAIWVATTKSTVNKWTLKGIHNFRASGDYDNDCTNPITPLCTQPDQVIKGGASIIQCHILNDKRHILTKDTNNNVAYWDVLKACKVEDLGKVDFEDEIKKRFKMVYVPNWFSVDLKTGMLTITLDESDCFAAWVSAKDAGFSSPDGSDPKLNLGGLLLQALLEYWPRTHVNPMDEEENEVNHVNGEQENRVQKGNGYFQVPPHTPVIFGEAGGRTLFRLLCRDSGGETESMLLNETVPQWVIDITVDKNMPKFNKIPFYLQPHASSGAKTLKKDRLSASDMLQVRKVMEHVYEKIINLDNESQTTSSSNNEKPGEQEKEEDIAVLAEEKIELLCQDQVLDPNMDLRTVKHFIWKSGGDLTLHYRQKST

`Cn1cc(C(F)(F)F)nc1-c1ccc(Cn2c(=O)[nH]c3cnc(-c4cccnc4OCC4CC4)nc32)cc1` [Compound I-414, 2-(2-(cyclopropylmethoxy)pyridin-3-yl)-9-(4-(1-methyl-4-(trifluoromethyl)-1H-imidazol-2-yl)benzyl)-7,9-dihydro-8H-purin-8-one] and `Cn1cc(C(F)(F)F)nc1-c1ccc(Cn2c(=O)[nH]c3cnc(-c4cccnc4NC4CC4)nc32)cc1` [Compound I-314, 2-(2-(cyclopropylamino)pyridin-3-yl)-9-(4-(1-methyl-4-(trifluoromethyl)-1H-imidazol-2-yl)benzyl)-7,9-dihydro-8H-purin-8-one] cannot be ordered by IC50: < 50 nM for the first, < 50 nM for the second.

Compared with `CC(C)c1ccccc1-c1ncc2[nH]c(=O)n(Cc3ccc(-n4ccc(C5CCNC5)n4)cc3)c2n1` (centres unmarked) [Compound I-222, 2-(2-isopropylphenyl)-9-(4-(3-(pyrrolidin-3-yl)-1H-pyrazol-1-yl)benzyl)-7,9-dihydro-8H-purin-8-one], `CC(C)c1ccccc1-c1ncc2[nH]c(=O)n(Cc3ccc(-n4ccc(C5CCCN(C)C5)n4)cc3)c2n1` (centres unmarked) [Compound I-444, 2-(2-isopropylphenyl)-9-(4-(3-(1-methylpiperidin-3-yl)-1H-pyrazol-1-yl)benzyl)-7,9-dihydro-8H-purin-8-one] is lower in IC50: 200 to 2000 nM for the first, < 50 nM for the second.

First: CC(C)N(C)c1ncccc1-c1ncc2[nH]c(=O)n(Cc3ccc(-c4nc(C(F)(F)F)cn4C)cc3)c2n1 [Compound I-330, 2-(2-(isopropyl(methyl)amino)pyridin-3-yl)-9-(4-(1-methyl-4-(trifluoromethyl)-1H-imidazol-2-yl)benzyl)-7,9-dihydro-8H-purin-8-one]
Second: CC(C)c1ccccc1-c1ncc2[nH]c(=O)n(Cc3ccc(-c4nc(C(F)(F)F)cn4C)cc3)c2n1 [Compound I-138, 2-(2-Isopropylphenyl)-9-(4-(1-methyl-4-(trifluoromethyl)-1H-imidazol-2-yl)benzyl)-7,9-dihydro-8H-purin-8-one]
The IC50 of the first is higher: 50 to 200 nM for the first, < 50 nM for the second. The second is the more potent here.

`CC(=O)Nc1ccc(Cn2c(=O)[nH]c3cnc(-c4ccccc4C(C)C)nc32)cc1` [Compound I-218, N-(4-((2-(2-isopropylphenyl)-8-oxo-7,8-dihydro-9H-purin-9-yl)methyl)phenyl)acetamide] and `CC(=O)Nc1cccc(Cn2c(=O)[nH]c3cnc(-c4ccccc4C(C)C)nc32)c1` [Compound I-217, N-(3-((2-(2-isopropylphenyl)-8-oxo-7,8-dihydro-9H-purin-9-yl)methyl)phenyl)acetamide] fall in the same range of IC50: 200 to 2000 nM for the first, 200 to 2000 nM for the second.

First: CC(C)c1ccccc1-c1ncc2[nH]c(=O)n(Cc3ccc(-n4ccnn4)cc3)c2n1 [Compound I-139, 9-(4-(1H-1,2,3-triazol-1-yl)benzyl)-2-(2-isopropylphenyl)-7,9-dihydro-8H-purin-8-one]
Second: CC(C)c1ccccc1-c1ncc2[nH]c(=O)n(Cc3ccc(-n4cc(C(C)(C)N)nn4)cc3)c2n1 [Compound I-338, 9-(4-(4-(2-aminopropan-2-yl)-1H-1,2,3-triazol-1-yl)benzyl)-2-(2-isopropylphenyl)-7,9-dihydro-8H-purin-8-one]
The IC50 of the first is lower: 50 to 200 nM for the first, > 2000 nM for the second. The first is the more potent here.

`CC(C)c1ncccc1-c1ncc2[nH]c(=O)n([C@H](C)c3ccc(-c4nc(C(F)(F)F)cn4C)cc3)c2n1` [Compound I-79, (R)-2-(2-isopropylpyridin-3-yl)-9-(1-(4-(1-methyl-4-(trifluoromethyl)-1H-imidazol-2-yl)phenyl)ethyl)-7,9-dihydro-8H-purin-8-one] and `CC(=O)N1CC(n2cc(C(F)(F)F)nc2-c2ccc(Cn3c(=O)[nH]c4cnc(-c5cccnc5C(C)C)nc43)cc2)C1` [Compound I-477, 9-(4-(1-(1-acetylazetidin-3-yl)-4-(trifluoromethyl)-1H-imidazol-2-yl)benzyl)-2-(2-isopropylpyridin-3-yl)-7,9-dihydro-8H-purin-8-one] cannot be ordered by IC50: < 50 nM for the first, < 50 nM for the second.

`CC(C)c1ccccc1-c1ncc2c(n1)n(Cc1ccc(OCc3cncn3C)cc1)c(=O)n2C` [Compound I-232, 2-(2-isopropylphenyl)-7-methyl-9-(4-((1-methyl-1H-imidazol-5-yl)methoxy)benzyl)-7,9-dihydro-8H-purin-8-one] and `CC(C)c1ccccc1-c1ncc2c(n1)n(Cc1cccc(OCc3cncn3C)c1)c(=O)n2C` [Compound I-243, 2-(2-isopropylphenyl)-7-methyl-9-(3-((1-methyl-1H-imidazol-5-yl)methoxy)benzyl)-7,9-dihydro-8H-purin-8-one] fall in the same range of IC50: 200 to 2000 nM for the first, 200 to 2000 nM for the second.

`CC(C)(O)c1ccccc1-c1ncc2[nH]c(=O)n(Cc3ccc(-n4cccn4)cc3)c2n1` [Compound I-528, 9-(4-(1H-Pyrazol-1-yl)benzyl)-2-(2-(2-hydroxypropan-2-yl)phenyl)-7,9-dihydro-8H-purin-8-one] and `O=c1[nH]c2cnc(-c3ccccc3OCC(F)(F)F)nc2n1Cc1ccc(-n2cccn2)cc1` [Compound I-22, 9-(4-(1H-pyrazol-1-yl)benzyl)-2-(2-(2,2,2-trifluoroethoxy)phenyl)-7,9-dihydro-8H-purin-8-one] fall in the same range of IC50: 200 to 2000 nM for the first, 200 to 2000 nM for the second.

`CC(C)c1ccccc1-c1ncc2c(n1)n(Cc1cccc(OC3CCC3)c1)c(=O)n2C` [Compound I-246, 9-(3-cyclobutoxybenzyl)-2-(2-isopropylphenyl)-7-methyl-7,9-dihydro-8H-purin-8-one] and `Cc1cc(C(=O)N(C)c2ccc(Cn3c(=O)n(C)c4cnc(-c5ccccc5C(C)C)nc43)cc2)n[nH]1` [Compound I-470, N-(4-((2-(2-isopropylphenyl)-7-methyl-8-oxo-7,8-dihydro-9H-purin-9-yl)methyl)phenyl)-N,5-dimethyl-1H-pyrazole-3-carboxamide] cannot be ordered by IC50: > 2000 nM for the first, > 2000 nM for the second.

`COC[C@@H]1CCCN1C(=O)c1ccc(Cn2c(=O)[nH]c3cnc(-c4ccccc4C(C)C)nc32)cc1` [Compound I-396, (S)-2-(2-isopropylphenyl)-9-(4-(2-(methoxymethyl)pyrrolidine-1-carbonyl)benzyl)-7,9-dihydro-8H-purin-8-one] and `CC(C)c1ccccc1-c1ncc2[nH]c(=O)n(Cc3ccc(C(=O)N4CCC[C@H]4CO)cc3)c2n1` [Compound I-382, (S)-9-(4-(2-(hydroxymethyl)pyrrolidine-1-carbonyl)benzyl)-2-(2-isopropylphenyl)-7,9-dihydro-8H-purin-8-one] fall in the same range of IC50: 200 to 2000 nM for the first, 200 to 2000 nM for the second.

Compared with `Cc1cc(C(=O)N(C)c2ccc(Cn3c(=O)n(C)c4cnc(-c5ccccc5C(C)C)nc43)cc2)n(C)n1` [Compound I-471, N-(4-((2-(2-isopropylphenyl)-7-methyl-8-oxo-7,8-dihydro-9H-purin-9-yl)methyl)phenyl)-N,1,3-trimethyl-1H-pyrazole-5-carboxamide], `CC(C)c1ccccc1-c1ncc2[nH]c(=O)n(Cc3ccc(C(=O)N(C)C)cc3)c2n1` [Compound I-355, 4-((2-(2-isopropylphenyl)-8-oxo-7,8-dihydro-9H-purin-9-yl)methyl)-N,N-dimethylbenzamide] is lower in IC50: > 2000 nM for the first, < 50 nM for the second. The second is the more potent here.

`Cn1cc(C(F)(F)F)nc1-c1ccc(Cn2c(=O)n(C)c3cnc(-c4ccccc4C(C)(C)O)nc32)cc1` [Compound I-132, 2-(2-(2-hydroxypropan-2-yl)phenyl)-7-methyl-9-(4-(1-methyl-4-(trifluoromethyl)-1H-imidazol-2-yl)benzyl)-7,9-dihydro-8H-purin-8-one] and `CNc1nc(-c2cccnc2OC(F)F)nc2c1[nH]c(=O)n2Cc1ccc(-c2nc(C(F)(F)F)cn2C)cc1` [Compound I-531, 2-(2-(Difluoromethoxy)pyridin-3-yl)-9-(4-(1-methyl-4-(trifluoromethyl)-1H-imidazol-2-yl)benzyl)-6-(methylamino)-7,9-dihydro-8H-purin-8-one] cannot be ordered by IC50: < 50 nM for the first, < 50 nM for the second.

First: Cc1nc(CN(C)C(=O)c2ccc(Cn3c(=O)[nH]c4cnc(-c5ccccc5C(C)C)nc43)cc2)cs1 [Compound I-371, 4-((2-(2-isopropylphenyl)-8-oxo-7,8-dihydro-9H-purin-9-yl)methyl)-N-methyl-N-((2-methylthiazol-4-yl)methyl)benzamide]
Second: CCN(C)C(=O)c1ccc(Cn2c(=O)[nH]c3cnc(-c4ccccc4C(C)C)nc32)cc1 [Compound I-373, N-ethyl-4-((2-(2-isopropylphenyl)-8-oxo-7,8-dihydro-9H-purin-9-yl)methyl)-N-methylbenzamide]
The IC50 of the first is higher: 50 to 200 nM for the first, < 50 nM for the second. The second is the more potent here.

First: CNC(=O)c1ccc(Cn2c(=O)[nH]c3cnc(-c4ccccc4C(C)C)nc32)cc1 [Compound I-351, 4-((2-(2-isopropylphenyl)-8-oxo-7,8-dihydro-9H-purin-9-yl)methyl)-N-methylbenzamide]
Second: CC(C)c1ccccc1-c1ncc2[nH]c(=O)n(Cc3ccc(C(=O)N4CCC[C@H]4C)cc3)c2n1 [Compound I-369, (R)-2-(2-isopropylphenyl)-9-(4-(2-methylpyrrolidine-1-carbonyl)benzyl)-7,9-dihydro-8H-purin-8-one]
The IC50 of the first is higher: 50 to 200 nM for the first, < 50 nM for the second. The second is the more potent here.

Compared with `O=c1[nH]c2cnc(-c3cccnc3OCC(F)(F)F)nc2n1Cc1ccc(-n2cccn2)cc1` [Compound I-18, 9-(4-(1H-pyrazol-1-yl)benzyl)-2-(2-(2,2,2-trifluoroethoxy)pyridin-3-yl)-7,9-dihydro-8H-purin-8-one], `CC(C)c1cccnc1-c1ncc2c(n1)n(Cc1ccc(-n3cccn3)cc1)c(=O)n2C` [Compound I-517, 9-(4-(1H-Pyrazol-1-yl)benzyl)-2-(3-isopropylpyridin-2-yl)-7-methyl-7,9-dihydro-8H-purin-8-one] is higher in IC50: 200 to 2000 nM for the first, > 2000 nM for the second. The first is the more potent here.

First: CC(C)c1c(F)cccc1-c1ncc2[nH]c(=O)n(Cc3ccc(-c4nccn4C)cc3)c2n1 [Compound I-172, 2-(3-fluoro-2-isopropylphenyl)-9-(4-(1-methyl-1H-imidazol-2-yl)benzyl)-7,9-dihydro-8H-purin-8-one]
Second: CC(C)c1ccccc1-c1ncc2[nH]c(=O)n([C@H](CO)c3ccccc3)c2n1 [Compound I-181, (S)-9-(2-hydroxy-1-phenylethyl)-2-(2-isopropylphenyl)-7,9-dihydro-8H-purin-8-one]
The IC50 of the first is lower: < 50 nM for the first, 200 to 2000 nM for the second.
